Laboratory results as given in ChEMBL document CHEMBL5380837, “Structure-Activity Relationships of Truncated 1'-Homologated Carbaadenosine Derivatives as New PPARγ/δ Ligands: A Study on Sugar Puckering Affecting Binding to PPARs” (J Med Chem, 2023).
pEC50, pKi: −log10 of the molar value.

Key:
[1] = target: T1, Peroxisome proliferator-activated receptor alpha (Homo sapiens) (UniProt Q07869); experiment: Binding affinity to PPARalpha (unknown origin) at 30 uM by TR-FRET based LanthaScreen competitive binding assay relative to control
T1 sequence (whole entry): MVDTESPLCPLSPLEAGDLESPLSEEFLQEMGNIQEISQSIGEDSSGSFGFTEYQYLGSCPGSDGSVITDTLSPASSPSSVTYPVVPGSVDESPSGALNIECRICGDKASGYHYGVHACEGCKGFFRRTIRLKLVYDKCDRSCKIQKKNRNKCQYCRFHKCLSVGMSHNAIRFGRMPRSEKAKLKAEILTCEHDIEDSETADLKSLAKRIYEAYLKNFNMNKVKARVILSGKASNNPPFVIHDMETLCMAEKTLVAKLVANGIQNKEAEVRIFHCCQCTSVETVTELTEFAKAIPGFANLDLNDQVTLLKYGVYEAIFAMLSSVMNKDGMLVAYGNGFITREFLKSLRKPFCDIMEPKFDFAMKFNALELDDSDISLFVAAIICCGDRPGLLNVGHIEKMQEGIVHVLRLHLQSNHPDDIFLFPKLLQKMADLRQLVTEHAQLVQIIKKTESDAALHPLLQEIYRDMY

[2] = target: T2, Peroxisome proliferator-activated receptor delta (Homo sapiens) (UniProt Q03181); experiment: Binding affinity to PPARdelta (unknown origin) at 30 uM by TR-FRET based LanthaScreen competitive binding assay relative to control
T2 sequence (whole entry): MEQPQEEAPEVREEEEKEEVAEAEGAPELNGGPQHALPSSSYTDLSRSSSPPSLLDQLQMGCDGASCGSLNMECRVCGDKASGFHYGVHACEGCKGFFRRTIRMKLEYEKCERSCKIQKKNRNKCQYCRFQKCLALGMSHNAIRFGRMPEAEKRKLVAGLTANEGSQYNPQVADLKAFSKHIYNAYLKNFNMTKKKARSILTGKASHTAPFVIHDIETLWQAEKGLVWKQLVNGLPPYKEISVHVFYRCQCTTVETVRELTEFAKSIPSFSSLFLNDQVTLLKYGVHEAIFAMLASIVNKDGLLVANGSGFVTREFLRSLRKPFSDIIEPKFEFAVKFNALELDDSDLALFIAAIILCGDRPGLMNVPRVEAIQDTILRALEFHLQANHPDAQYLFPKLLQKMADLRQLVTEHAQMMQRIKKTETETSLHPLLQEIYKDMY

[3] = target: T3, Peroxisome proliferator-activated receptor delta (Homo sapiens, UniProt Q03181); experiment: Binding affinity to PPARdelta (unknown origin) assessed as inhibition constant by TR-FRET based LanthaScreen competitive binding assay
T3 sequence (Q03181 whole entry): T2 sequence (whole entry)

[4] = target: T4, Peroxisome proliferator-activated receptor gamma (Homo sapiens, UniProt P37231); experiment: Binding affinity to PPARgamma (unknown origin) assessed as inhibition constant by TR-FRET based LanthaScreen competitive binding assay
T4 sequence (P37231 whole entry): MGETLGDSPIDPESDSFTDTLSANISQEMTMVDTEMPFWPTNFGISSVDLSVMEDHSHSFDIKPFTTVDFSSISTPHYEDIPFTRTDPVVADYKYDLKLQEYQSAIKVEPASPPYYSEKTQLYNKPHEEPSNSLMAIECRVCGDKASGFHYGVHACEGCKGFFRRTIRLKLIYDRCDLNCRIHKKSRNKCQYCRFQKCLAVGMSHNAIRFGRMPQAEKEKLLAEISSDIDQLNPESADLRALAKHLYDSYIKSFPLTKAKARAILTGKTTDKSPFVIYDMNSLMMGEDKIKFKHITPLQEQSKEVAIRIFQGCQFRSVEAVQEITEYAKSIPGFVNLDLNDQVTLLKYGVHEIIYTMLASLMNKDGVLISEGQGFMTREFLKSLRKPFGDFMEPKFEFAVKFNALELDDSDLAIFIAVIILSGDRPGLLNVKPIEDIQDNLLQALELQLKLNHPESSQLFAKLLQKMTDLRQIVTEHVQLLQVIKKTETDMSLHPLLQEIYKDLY

[5] = target: T3, Peroxisome proliferator-activated receptor delta; experiment: Antagonist activity at PPARdelta LBD (unknown origin) assessed as increase in fluorescein labeled SMRT-ID2 corepressor peptide requirement by TR-FRET assay

| Structure (SMILES) | Activity [1] [%] | Activity [2] [%] | also measured |
| --- | --- | --- | --- |
| O[C@@H]1[C@H](O)[C@@H]2C[C@@H]2[C@H]1Cn1cnc2c(NCc3cccc(Br)c3)ncnc21 | 8.3 | 20 | – |
| O[C@@H]1C[C@@H]2C[C@]2(Cn2cnc3c(NCc4cccc(Br)c4)ncnc32)[C@@H]1O | 5.6 | 9.2 | – |
| O[C@H]1[C@H](Cn2cnc3c(NCc4cccc(F)c4)nc(Cl)nc32)CC[C@H]1O | 6.5 | 37 | – |
| O[C@H]1[C@H](Cn2cnc3c(NCc4cccc(Br)c4)ncnc32)CC[C@H]1O | 6.6 | 12.9 | – |
| O[C@H]1[C@H](Cn2cnc3c(NCc4cccc(Cl)c4)nc(Cl)nc32)CC[C@H]1O | 5.1 | – | pKi [3]: 5.79 |
| O[C@H]1[C@H](Cn2cnc3c(NCc4cccc(Cl)c4)ncnc32)CC[C@H]1O | 4 | 2 | – |
| O[C@@H]1[C@H](O)[C@@H]2C[C@@H]2[C@H]1Cn1cnc2c(NCc3cccc(I)c3)ncnc21 | 4.6 | – | Activity ([2]; filed as antagonist): 45.8% |
| O[C@@H]1[C@H](O)C=C[C@H]1Cn1cnc2c(NCc3cccc(I)c3)ncnc21 | 4.1 | 7.3 | – |
| O[C@@H]1[C@H](O)C=C[C@H]1Cn1cnc2c(NCc3cccc(Cl)c3)ncnc21 | 0.8 | 5.9 | – |
| O[C@@H]1[C@H](O)[C@@H]2C[C@@H]2[C@H]1Cn1cnc2c(NCc3cccc(Cl)c3)ncnc21 | 6 | 13.4 | – |
| O[C@@H]1[C@H](O)CO[C@H]1Cn1cnc2c(NCc3cccc(Br)c3)nc(Cl)nc21 | 0.3 | – | pKi [4]: 5.44; pKi [3]: 6.43; pEC50 [5]: 4.58 |
| O[C@@H]1[C@H](O)[C@@H]2C[C@@H]2[C@H]1Cn1cnc2c(NCc3ccccc3I)nc(Cl)nc21 | 3.8 | 34.6 | pKi [4]: 5.64 |
| O[C@@H]1[C@H](O)[C@@H]2C[C@@H]2[C@H]1Cn1cnc2c(NCc3cccc(F)c3)nc(Cl)nc21 | 3.6 | – | Activity ([2]; filed as antagonist): 46.3% |
| O[C@@H]1[C@H](O)C=C[C@H]1Cn1cnc2c(NCc3cccc(F)c3)ncnc21 | 5.2 | 2.4 | – |
| COC(=O)c1sccc1S(=O)(=O)Nc1ccc(Nc2ccccc2)cc1OC | 6.4 | – | – |
| COc1cccc(CNc2nc(Cl)nc3c2ncn3C[C@H]2[C@H](O)[C@H](O)[C@@H]3C[C@H]23)c1 | 9.2 | – | pKi [3]: 6.53 |
| O[C@@H]1[C@H](O)[C@@H]2C[C@@H]2[C@H]1Cn1cnc2c(NCc3ccc(I)cc3)nc(Cl)nc21 | 2.7 | – | pKi [3]: 5.94 |
| Cc1cc(SCc2sc(-c3ccc(C(F)(F)F)cc3)nc2C)ccc1OCC(=O)O | 34.9 | – | – |
| O[C@@H]1[C@H](O)[C@@H]2C[C@@H]2[C@H]1Cn1cnc2c(NCc3cccc(Cl)c3)nc(Cl)nc21 | 3.8 | – | pKi [3]: 6.01 |
| O[C@@H]1[C@H](O)C=C[C@H]1Cn1cnc2c(NCc3cccc(Br)c3)ncnc21 | 0.7 | 4.2 | – |
| O[C@@H]1[C@H](O)C=C[C@H]1Cn1cnc2c(NCc3cccc(Cl)c3)nc(Cl)nc21 | 4 | – | pKi [3]: 5.60 |
| O[C@@H]1[C@H](O)[C@@H]2C[C@@H]2[C@H]1Cn1cnc2c(NCc3cccc(F)c3)ncnc21 | 7.1 | 0.8 | – |
| O[C@H]1[C@H](Cn2cnc3c(NCc4cccc(F)c4)ncnc32)CC[C@H]1O | 63 | 4.8 | – |
| O[C@@H]1C[C@@H]2C[C@]2(Cn2cnc3c(NCc4cccc(F)c4)ncnc32)[C@@H]1O | 2.7 | 7.4 | – |
| O[C@@H]1[C@H](O)C=C[C@H]1Cn1cnc2c(NCc3cccc(F)c3)nc(Cl)nc21 | 7 | 28.4 | – |
| O[C@@H]1C[C@@H]2C[C@]2(Cn2cnc3c(NCc4cccc(Cl)c4)ncnc32)[C@@H]1O | 6.9 | 2 | – |
| O[C@@H]1C[C@@H]2C[C@]2(Cn2cnc3c(NCc4cccc(I)c4)ncnc32)[C@@H]1O | 9.4 | 8.6 | – |
| O[C@@H]1C[C@@H]2C[C@]2(Cn2cnc3c(NCc4cccc(F)c4)nc(Cl)nc32)[C@@H]1O | 1.7 | 11.9 | – |
| O[C@H]1[C@H](Cn2cnc3c(NCc4cccc(I)c4)ncnc32)CC[C@H]1O | 5.3 | 39.4 | – |
